Measurements reported in patent publication US8617871B2, “Method and culture medium for enhanced detection of Mycobacterium” (bioMerieux, Inc., priority 2009, dated 2013).
Where “and” joins values, the source holds several entries; their conditions need not be identical. Identical values can stand only once. Like-named read-outs stand apart in the source and are kept apart here.

What was measured:
[1] = test system: contaminating respiratory flora (CRF); type: cell-based
M. avium = type: cell-based, Mycobacterium avium
M. intracellulare = type: cell-based, Mycobacterium intracellulare
M. tuberculosis = assay: Time to detection (TTD) of growth in BacT/ALERT MP culture bottles; type: cell-based, Mycobacterium tuberculosis; details: for # Positive: of # Tested
M. kansasii = assay: as above; type: cell-based, Mycobacterium kansasii; details: for effect on the growth (as determined by TTD of growth): Mycobacterium kansasii, compared to a culture medium that contained no antimicrobial agents; for # Positives: M. kansasii 12478, of # Tested
Procedure: (§1) For the new NS, an autoclaved or new BacT/ALERT® MP bottle was used (as described hereinabove) and for conventional/old RF, conventional/old MP bottle (bioMérieux, Inc.) was used. […] The conventional MAS (using conventional/old RF) and new MAS formulas (using NS) were added to the second set of MP culture bottles. The experiment was performed with mycobacteria species at 0.5×10^3 CFU/ml and CRF cultures at 0.5×10^5 CFU/ml.
(§2) The mycobacteria inoculum was 0.5×10^3 CFU/ml.

M. scrofulaceum = assay: as above; type: cell-based, Mycobacterium scrofulaceum; details: for effect on the growth (as determined by TTD of growth): Mycobacterium scrofulaceum, compared to a culture medium that contained no antimicrobial agents; for # Positives: of # Tested
Procedure: as §1, §2

M. fortuitum = assay: as above; type: cell-based; details: M. fortuitum 6841; for # Positives: of # Tested
[2] = M. tuberculosis 27294, Media + AZL 24
[3] = M. scrofulaceum 19981, Media + VAN 3.5

For `C[C@@H]1O[C@@H]1P(=O)(O)O` [fosfomycin], which “ability to suppress contaminating respiratory flora (CRF)” value [1] is on record?
The value was “the best choice for suppression of CRF”.

What does the source list for `O=C(O)CCC(=O)C(=O)O` [α-keto glutarate, α-ketoglutarate]?
No. of positives (M. avium): 3; reduction in time to detection (TTD) of growth (M. avium): two; Avg. TTD (M. intracellulare): 9.0 days and 8.8 days; No. of positives (M. intracellulare): 3; reduction in time to detection (TTD) of growth (M. intracellulare): two; No. of positives (M. tuberculosis): 3; reduction in time to detection (TTD) of growth (M. tuberculosis): two

For `CC1(C)S[C@@H]2[C@H](NC(=O)[C@H](NC(=O)N3CCNC3=O)c3ccccc3)C(=O)N2[C@H]1C(=O)O` [AZL, azlocillin], which “effect on the growth (as determined by TTD of growth)” value (shortened to “effect on the growth”) (M. intracellulare) is on record?
Its value is “negative effect”.

What about the “# Positive” value (M. tuberculosis; M. tuberculosis 25177, Media + AZL12) of the same molecule?
The value was 4.0.

And the “# Positive” value (M. tuberculosis; M. tuberculosis 25177, Media + AZL 24)?
Its value is 2.0.

And the “# Positive” value (M. tuberculosis; M. tuberculosis 25177, Media + AZL 48)?
Its value is 2.0.

And the “# Positive” value (M. tuberculosis; M. tuberculosis 27294, Media + AZL12)?
Its value is 4.0.

And the “Average TTD” value (M. tuberculosis; [2])?
Its value is 16.0 days.

What about the “# Positive” value (M. tuberculosis; [2]) of the same molecule?
The value was 4.0.

And the “# Positive” value (M. tuberculosis; M. tuberculosis 27294, Media + AZL 48)?
The value was 4.0.

And the “effect on the growth” value (M. tuberculosis; Mycobacterium tuberculosis, compared to a culture medium that contained no antimicrobial agents)?
The value was “negative effect”.

And the “effect on the growth” value (M. kansasii)?
The value was “negative effect”.

What about the “effect on the growth” value (M. scrofulaceum) of the same molecule?
Its value is “negative effect”.

Which “effect on the growth” value (M. tuberculosis) does the source give for `CN[C@H](CC(C)C)C(=O)N[C@H]1C(=O)N[C@@H](CC(N)=O)C(=O)N[C@H]2C(=O)N[C@H]3C(=O)N[C@H](C(=O)N[C@H](C(=O)O)c4cc(O)cc(O)c4-c4cc3ccc4O)[C@H](O)c3ccc(c(Cl)c3)Oc3cc2cc(c3O[C@@H]2O[C@H](CO)[C@@H](O)[C@H](O)[C@H]2O[C@H]2C[C@](C)(N)[C@H](O)[C@H](C)O2)Oc2ccc(cc2Cl)[C@H]1O` [VAN, vancomycin] here?
The value was “negative effect”.

What about the “Average TTD” value (M. fortuitum; Media + VAN 1.75) of the same molecule?
Its value is 4.7 days.

And the “# Positives” value (M. fortuitum; Media + VAN 1.75)?
Its value is 4.0.

What about the “Average TTD” value (M. fortuitum; Media + VAN 3.5) of the same molecule?
The value was 4.1 days.

And the “# Positives” value (M. fortuitum; Media + VAN 3.5)?
The value was 4.0.

What about the “Average TTD” value (M. fortuitum; Media + VAN 7) of the same molecule?
The value was 4.8 days.

And the “# Positives” value (M. fortuitum; Media + VAN 7)?
The value was 4.0.

What about the “# Positives” value (M. kansasii; Media + VAN 1.75) of the same molecule?
Its value is 4.0.

What about the “# Positives” value (M. kansasii; Media + VAN 3.5) of the same molecule?
Its value is 2.0.

And the “effect on the growth” value (M. kansasii)?
The value was “negative effect”.

And the “# Positives” value (M. scrofulaceum; M. scrofulaceum 19981, Media + VAN 1.75)?
Its value is 4.0.

What about the “Average TTD” value (M. scrofulaceum; [3]) of the same molecule?
Its value is 14.0 days.

And the “# Positives” value (M. scrofulaceum; [3])?
The value was 4.0.

What about the “# Positives” value (M. scrofulaceum; M. scrofulaceum 19981, Media + VAN 7) of the same molecule?
The value was 1.0.

And the “effect on the growth” value (M. scrofulaceum)?
The value was “negative effect”.
